{"source": "paper PMC7053198", "about": "(Theranostics, 2020)", "key": {"[1]": {"conditions": "in vivo, ip"}, "A375Pβ6 cells [2]": {"test_system": "A375Pβ6 cells"}, "Panc0403/PS1 xenografts": {"test_system": "Panc0403/PS1 xenografts", "format": "in vivo, mouse", "conditions": "n=4"}, "[3]": {"test_system": "Panc0403/PS1 tumor xenografts", "format": "in vivo, mouse", "conditions": "n=4"}, "A375Ppuro xenografts": {"test_system": "A375Ppuro xenografts", "format": "in vivo, mouse", "conditions": "after 21 days"}, "A375Ppuro cells [4]": {"test_system": "A375Ppuro cells", "format": "cell-based, human", "conditions": "30 min at 4°C"}, "[5]": {"conditions": "mouse, in vivo, ip"}, "Panc1 cell line": {"test_system": "Panc1 cell line", "format": "cell-based", "conditions": "after 30 min"}, "[6]": {"test_system": "PANC354, PANC253 and PANC215 PDX PDAC cells", "format": "cell-based, human"}, "Capan-1 PDAC xenografts": {"test_system": "Capan-1 PDAC xenografts", "conditions": "mouse, in vivo, ip"}, "Capan-1 cells [7]": {"test_system": "Capan-1 cells"}, "in vivo": {"test": "in vivo", "conditions": "female, CD1 Nu/Nu, mouse, ip, 20 ug/kg"}, "A375Pβ6 xenografts": {"test_system": "A375Pβ6 xenografts", "conditions": "mouse, in vivo, ip"}, "A375Pβ6 cells [8]": {"test_system": "A375Pβ6 cells", "format": "cell-based, human", "conditions": "30 min at 4°C"}, "Capan-1 tumor xenografts": {"test_system": "Capan-1 tumor xenografts", "format": "in vivo, mouse", "conditions": "n=3"}, "A375Ppuro cells [9]": {"test_system": "A375Ppuro cells"}, "[10]": {"test_system": "αvβ6-positive versus αvβ6-negative cell lines", "format": "cell-based"}, "Capan-1 cells [11]": {"test_system": "Capan-1 cells", "format": "cell-based, human"}}}
{"smiles": "COc1cc2c(cc1OCCCCCOc1cc3c(cc1OC)C(=O)N1C=C(C)C[C@H]1[C@H](O)N3C(=O)OCc1ccc(NC(=O)[C@H](C)NC(=O)[C@@H](NC(=O)CCOCCOCCOCCOCCOCCOCCOCCOCCNC(=O)CCN3C(=O)CC(SC[C@H](NC(=O)[C@@H](NC(=O)[C@H](CCCNC(=N)N)NC(=O)[C@H](C)NC(=O)[C@@H](NC(=O)[C@H](CCCCN)NC(=O)[C@H](CCC(N)=O)NC(=O)[C@H](C)NC(=O)[C@H](CC(C)C)NC(=O)[C@@H](NC(=O)[C@H](CCC(N)=O)NC(=O)[C@H](CC(C)C)NC(=O)[C@H](CC(=O)O)NC(=O)CNC(=O)[C@H](CCCNC(=N)N)NC(=O)[C@H](CC(C)C)NC(=O)[C@H](CC(N)=O)NC(=O)[C@@H]4CCCN4C(=O)[C@@H](NC(=O)[C@H](C)NC(=O)[C@H](CC(N)=O)NC(=O)CCCC[C@@H]4SC[C@@H]5NC(=O)N[C@@H]54)C(C)C)C(C)C)C(C)C)[C@@H](C)O)C(=O)O)C3=O)C(C)C)cc1)N=C[C@@H]1CC(C)=CN1C2=O", "note": "(stereo partly drawn) [SG3299]", "values": [{"measurement": "adverse effects (mouse weight, behaviour, gross histology of lung, intestine and stomach)", "setting": "[1]", "result": "no gross adverse effects"}, {"measurement": "PDC αvβ6 Specificity Ratio", "setting": "A375Pβ6 cells [2]", "result": 15.02}, {"measurement": "more potent in A375Pβ6 cells than SG3511", "setting": "A375Pβ6 cells [2]", "result": "over 15 fold"}, {"measurement": "more selective for A375Pβ6 cells than A375Ppuro cells", "setting": "A375Pβ6 cells [2]", "result": 5.7, "unit": "fold"}, {"measurement": "IC50", "setting": "A375Pβ6 cells [2]; 72 h", "result": "5.37 ± 5.23", "unit": "nM"}, {"measurement": "PDC αvβ6 Specificity Ratio", "setting": "Colo357 cells", "result": 10.97}, {"measurement": "IC50", "setting": "Colo357 cells; 72 h", "result": "2.24 ± 1.59", "unit": "nM"}, {"measurement": "reduction of xenograft tumor growth compared with PBS treatment", "setting": "Panc0403/PS1 xenografts", "result": "75.8±6", "unit": "%"}, {"measurement": "reduction of xenograft tumor growth compared with SG3511 therapy", "setting": "Panc0403/PS1 xenografts", "result": "60.4±9.8", "unit": "%"}, {"measurement": "increase in DNA damage (γH2AX) compared with PBS", "setting": "[3]", "result": 5.5, "unit": "fold"}, {"measurement": "increase in DNA damage (γH2AX) compared with SG3511", "setting": "[3]", "result": 2.9, "unit": "fold"}, {"measurement": "reduction of epithelial cell number (CK) compared with PBS", "setting": "[3]", "result": "44.2±18.1", "unit": "%"}, {"measurement": "reduction of epithelial cell number (CK) compared with SG3511", "setting": "[3]", "result": "41.2±19.1", "unit": "%"}, {"measurement": "reduction of epithelial cell number (E-cadherin) compared with PBS", "setting": "[3]", "result": "46±11", "unit": "%"}, {"measurement": "reduction of epithelial cell number (E-cadherin) compared with SG3511", "setting": "[3]", "result": "32.1±34.6", "unit": "%"}, {"measurement": "reduction of proliferation (Ki67) compared with PBS", "setting": "[3]", "result": "60±13.1", "unit": "%"}, {"measurement": "reduction of proliferation (Ki67) compared with SG3511", "setting": "[3]", "result": "54.8±13.8", "unit": "%"}, {"measurement": "reduction of β6 expression compared to PBS", "setting": "[3]", "result": "73.4±11", "unit": "%"}, {"measurement": "reduction of β6 expression compared to SG3511", "setting": "[3]", "result": "61.1±16.1", "unit": "%"}, {"measurement": "reduction in tumor size compared with vehicle (PBS)", "setting": "A375Ppuro xenografts", "result": "34.8±4.6", "unit": "%"}, {"measurement": "binding to A375Ppuro cells (MFI)", "setting": "A375Ppuro cells [4]", "result": "failed to bind"}, {"measurement": "PDC αvβ6 Specificity Ratio", "setting": "Panc0403 cells", "result": 13.22}, {"measurement": "IC50", "setting": "Panc0403 cells; 72 h", "result": "3.44 ± 3.29", "unit": "nM"}, {"measurement": "detection in urine", "setting": "[5]", "result": "No SG3299 was detected in the urine"}, {"measurement": "levels of internalised conjugate in αvβ6-negative Panc1", "setting": "Panc1 cell line", "result": "no significant difference in the levels of internalised SG3299 or SG3511"}, {"measurement": "reduction of the number of spheres formed compared with control-treated spheres", "setting": "[6]", "result": "72±27", "unit": "%"}, {"measurement": "PDC αvβ6 Specificity Ratio", "setting": "Panc1 cells", "result": 0.33}, {"measurement": "IC50", "setting": "Panc1 cells; 72 h", "result": "176 ± 116", "unit": "nM"}, {"measurement": "effect on tumor growth", "setting": "Capan-1 PDAC xenografts", "result": "significant growth inhibition"}, {"measurement": "mice with tumors eliminated", "setting": "Capan-1 PDAC xenografts", "result": "4 out of 5"}, {"measurement": "reduction of tumor growth compared to PBS", "setting": "Capan-1 PDAC xenografts", "result": "97.7±2", "unit": "%"}, {"measurement": "reduction of tumor growth compared to SG3511", "setting": "Capan-1 PDAC xenografts", "result": "96.1±3.4", "unit": "%"}, {"measurement": "PDC αvβ6 Specificity Ratio", "setting": "Capan-1 cells [7]", "result": 2.80}, {"measurement": "IC50", "setting": "Capan-1 cells [7]; 72 h", "result": "4.19 ± 3.76", "unit": "nM"}, {"measurement": "level at time molar at 2 min", "setting": "in vivo", "result": "11 ± 4.3", "unit": "nM"}, {"measurement": "level at time molar at 5 min", "setting": "in vivo", "result": "9.5 ± 4.3", "unit": "nM"}, {"measurement": "level at time molar at 0.25 h", "setting": "in vivo", "result": "19.2 ± 4.9", "unit": "nM"}, {"measurement": "level at time molar at 1 h", "setting": "in vivo", "result": "27.9 ± 4.2", "unit": "nM"}, {"measurement": "reduced growth more than SG3511", "setting": "A375Pβ6 xenografts", "result": 2.3, "unit": "fold"}, {"measurement": "reduction of tumor growth compared with PBS treatment", "setting": "A375Pβ6 xenografts", "result": "79±7", "unit": "%"}, {"measurement": "binding to A375Pβ6 cells (MFI)", "setting": "A375Pβ6 cells [8]", "result": "dose-dependent binding"}, {"measurement": "increase in DNA damage (γH2AX) compared with PBS", "setting": "Capan-1 tumor xenografts", "result": 5.9, "unit": "fold"}, {"measurement": "increase in apoptosis (cleaved-caspase 3) from PBS", "setting": "Capan-1 tumor xenografts", "result": 5.8, "unit": "fold"}, {"measurement": "increased vimentin compared with PBS", "setting": "Capan-1 tumor xenografts", "result": 4.6, "unit": "fold"}, {"measurement": "increased α-sma expression from PBS", "setting": "Capan-1 tumor xenografts", "result": 1.9, "unit": "fold"}, {"measurement": "reduction in CK-positive epithelial cells compared with PBS", "setting": "Capan-1 tumor xenografts", "result": "79.2±11.2", "unit": "%"}, {"measurement": "reduction in E-cadherin-positive epithelial cells compared with PBS", "setting": "Capan-1 tumor xenografts", "result": "85±8", "unit": "%"}, {"measurement": "reduction in proliferation (Ki67 staining) compared with SG3511", "setting": "Capan-1 tumor xenografts", "result": "66.2±15.7", "unit": "%"}, {"measurement": "reduction in proliferation (Ki67 staining) compared with control", "setting": "Capan-1 tumor xenografts", "result": "67.5±15", "unit": "%"}, {"measurement": "PDC αvβ6 Specificity Ratio", "setting": "A375Ppuro cells [9]", "result": 3.30}, {"measurement": "IC50", "setting": "A375Ppuro cells [9]; 72 h", "result": "30.6 ± 18.8", "unit": "nM"}, {"measurement": "higher toxicity at equal dose than the non-targeted PDC SG3511", "setting": "[10]", "result": "up to 15 fold"}, {"measurement": "more toxic for αvβ6-expressing versus αvβ6-negative PDAC cell lines", "setting": "[10]", "result": "up to 78 fold"}, {"measurement": "binding and internalisation in Capan-1 cells", "setting": "Capan-1 cells [11]", "result": "strong binding and entry into the cytoplasm"}]}
